Source: patent US9650390B2, “Water-soluble taxane derivatives and uses thereof” (priority 2014, dated 2017)

Tests used:
[1] = In vitro dissociation in blood plasma of rat; assay type: in vitro ADME, SD rats; conditions: fresh SD rat plasma, 37° C.; for Sampling time/Dissociation percent (%) 2 min: 2 min incubation; for Sampling time/Dissociation percent (%) 5 min: 5 min incubation; for Sampling time/Dissociation percent (%) 10 min: 10 min incubation
Method: The obtained water soluble taxane derivatives of the following formulae were formulated as 0.2 mg/ml aqueous solutions. […] After 2 min, 5 min and 10 min of incubation, 0.2 ml of solutions were respectively taken from each of the samples, and added to acetonitrile (0.4 ml) cooled to −20° C. for precipitation of protein.

[2] = physiological saline
[3] = In vitro dissociation in blood plasma of rabbit; assay type: in vitro ADME, New Zealand white rabbits; conditions: fresh New Zealand white rabbit plasma, 37° C.
Method: The obtained water soluble taxane derivatives of the following formulae were formulated as 0.2 mg/ml aqueous solutions. […]

[4] = In vivo metabolic test of the water soluble paclitaxel derivatives in rats; conditions: SD rats, 5 mg/kg intravenous, 5 min after administration, LC-MS
Method: After 5 min of administration, 0.3 ml of venous blood was taken from the retrobulbar venous plexus of the rats, placed in heparinized tubes, and centrifuged at 11.000 rpm for 5 min. Blood plasma was separated, and the concentrations of the compounds in the blood plasma were determined by liquid chromatography-mass spectrometry.

[5] = system: human ovarian cancer SK-OV-3; conditions: 16 mg/kg, D0-4 IV
Description: Purpose: to evaluate and compare the inhibitory activity of the water soluble paclitaxel derivatives, paclitaxel and Abraxane® on subcutaneously xenografted tumor of human ovarian cancer SK-OV-3 in nude mice.
Human ovarian cancer SK-OV-3 cells were subcutaneously inoculated to nude mice. After the tumor volume reached 100-150 mm^3, the animals were randomly divided into groups (D0), and administered with the water soluble paclitaxel derivatives of the following formula, paclitaxel, and Abraxane®, respectively once per day for 5 days. The tumor volume was measured 2-3 times per week, the animals were weighed and the data were recorded until day 22 (D22) after grouping.
The tumor volume (V) was calculated according to the equation: V=½×a×b^2, wherein a and b represent the length and the width, respectively.
T/C (%)=(T−T0)/(C−C0)×100, wherein T and C represent the tumor volume at the end of the experiment, and T0 and C0 represent the tumor volume at the beginning of the experiment.

[6] = D22, SK-OV-3 xenograft in nude mice

Compound	Sampling time/Dissociation percent (%) 2 min [1] [%]	Sampling time/Dissociation percent (%) 5 min [1] [%]	Sampling time/Dissociation percent (%) 10 min [1] [%]	Solubility [2] [mg/mL]	Sampling time/Dissociation percent (%) 2 min [3] [%]	Sampling time/Dissociation percent (%) 5 min [3] [%]	Sampling time/Dissociation percent (%) 10 min [3] [%]	mean concentration of paclitaxel in the blood plasma [4] [ng/mL]	Body weight change (%) D4 ([5]; D4, nude mice) [%]	T/C (%) D22 [5, 6] [%]	Tumor volume (mm^3) (D22) [5, 6]	Tumor inhibitory percent (%) D22 ([5]; D22, SK-OV-3 xenograft in nude mice, P = 0.000 vs control) [%]	Tumor volume (mm^3) (D0) ([5]; baseline at grouping (D0), SK-OV-3 xenograft in nude mice)
CC(=O)OC1C(=O)C23CC2CC2OCC2(OC(C)=O)C3C(OC(=O)c2ccccc2)C2(O)CC(OC(=O)C(OC(=O)C(F)CC(C)N(C)C)C(NC(=O)OC(C)(C)C)c3ccccc3)C(C)=C1C2(C)C.CS(=O)(=O)O [Compound 16, 2′-O-[4-N,N-dimethylamino-2(R)-fluorovaleryl]larotaxel methanesulfonate]	60.2	92.1	100	11.1	63.2	94.1	100	–	–	–	–	–	–
CC(=O)OC12COC1CCC1(C)C3OC(CN(C)C)OC3C3=C(C)C(OC(=O)C(OC(=O)C(F)CC(C)N(C)C)C(NC(=O)OC(C)(C)C)c4ncccc4F)CC(O)(C(OC(=O)c4ccccc4)C12)C3(C)C.CS(=O)(=O)O [Compound 17, 2′-O-[4-N,N-dimethylamino-2(R)-fluorovaleryl]tesetaxel methanesulfonate]	59.3	93.5	100	12.3	62.7	93.4	100	–	–	–	–	–	–
CCN(C)C(C)C[C@H](C(=O)O[C@@H](C(=O)O[C@H]1C[C@@]2(O)[C@@H](OC(=O)c3ccccc3)[C@@H]3[C@]4(OC(C)=O)CO[C@@H]4C[C@H](O)[C@@]3(C)C(=O)[C@H](O)C(=C1C)C2(C)C)[C@@H](NC(=O)OC(C)(C)C)c1ccccc1)C(C)(F)F.CS(=O)(=O)O (stereo partly drawn) [Compound C12, 2′-O-[4-N-methyl-N-ethylamino-2(R)-2-difluoroethylvaleryl]docetaxel methanesulfonate]	42.8	74.8	88.4	11.3	44.6	72.1	89.6	–	–	–	–	–	–
CC(=O)O[C@@]12CO[C@@H]1C[C@H](O)[C@@]1(C)C(=O)[C@H](O)C3=C(C)[C@@H](OC(=O)[C@H](OC(=O)[C@H](F)CC(C)N(C)C)[C@@H](NC(=O)OC(C)(C)C)c4ccccc4)C[C@@](O)([C@@H](OC(=O)c4ccccc4)[C@H]21)C3(C)C.Cl (stereo partly drawn) [Compound C13, 2′-O-[4-N,N-dimethylamino-2(R)-fluorovaleryl]docetaxel hydrochloride]	44.8	84.8	92.7	2.3	46.2	78.9	93.4	–	–	–	–	–	–
CC(=O)O[C@H]1C(=O)[C@]23C[C@H]2C[C@H]2OC[C@@]2(OC(C)=O)[C@H]3[C@H](OC(=O)c2ccccc2)[C@]2(O)C[C@H](OC(=O)[C@H](OC(=O)[C@H](F)CC(C)N(C)C)[C@@H](NC(=O)OC(C)(C)C)c3ccccc3)C(C)=C1C2(C)C.Cl (stereo partly drawn) [Compound C16, 2′-O-[4-N,N-dimethylamino-2(R)-fluorovaleryl]larotaxel hydrochloride]	61.1	93.8	100	0.8	68.2	94.4	100	–	–	–	–	–	–
CC(=O)O[C@@]12CO[C@@H]1CC[C@@]1(C)[C@@H]3O[C@H](CN(C)C)O[C@@H]3C3=C(C)[C@@H](OC(=O)[C@H](OC(=O)[C@H](F)CC(C)N(C)C)[C@@H](NC(=O)OC(C)(C)C)c4ncccc4F)C[C@@](O)([C@@H](OC(=O)c4ccccc4)[C@@H]12)C3(C)C.Cl (stereo partly drawn) [Compound C17, 2′-O-[4-N,N-dimethylamino-2(R)-fluorovaleryl]tesetaxel hydrochloride]	60.7	95.5	100	1.0	69.7	96.8	100	–	–	–	–	–	–
CC(=O)O[C@H]1C(=O)[C@@]2(C)[C@H]([C@H](OC(=O)c3ccccc3)[C@]3(O)C[C@H](OC(=O)[C@H](O)[C@@H](NC(=O)c4ccccc4)c4ccccc4)C(C)=C1C3(C)C)[C@]1(OC(C)=O)CO[C@@H]1C[C@@H]2O [paclitaxel, reference compound]	–	–	–	–	–	–	–	1793	−4.8	−60	53.7 ± 11.2	160	134.6 ± 19.7
